{"source": "ChEMBL document CHEMBL1137486", "about": "“N4-phenyl modifications of N2-(2-hydroxyl)ethyl-6-(pyrrolidin-1-yl)-1,3,5-triazine-2,4-diamines enhance glucocerebrosidase inhibition by small molecules with potential as chemical chaperones for Gaucher disease” (Bioorg Med Chem Lett, 2007)", "note": "Calls of active or inactive are those of the source. No cut-off for these calls is given here.", "data": [{"molecular_target": "Alpha-galactosidase (Coffea arabica) (UniProt Q5DUH8)", "sequence (Q5DUH8 as listed by the source)": "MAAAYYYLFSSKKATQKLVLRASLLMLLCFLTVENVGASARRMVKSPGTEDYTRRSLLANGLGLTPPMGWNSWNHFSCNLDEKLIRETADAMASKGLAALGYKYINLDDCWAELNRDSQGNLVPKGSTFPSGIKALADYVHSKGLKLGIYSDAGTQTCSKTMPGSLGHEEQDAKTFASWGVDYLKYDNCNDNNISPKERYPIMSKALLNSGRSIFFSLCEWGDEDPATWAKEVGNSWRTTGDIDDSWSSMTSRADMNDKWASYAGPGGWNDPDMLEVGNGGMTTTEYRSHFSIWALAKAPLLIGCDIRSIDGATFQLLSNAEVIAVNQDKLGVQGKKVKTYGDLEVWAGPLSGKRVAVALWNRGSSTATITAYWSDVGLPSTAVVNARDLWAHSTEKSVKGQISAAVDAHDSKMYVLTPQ", "experiment": "Inhibition of coffee bean alpha galactosidase upto 77 uM", "values": [{"smiles": "CC(C)(C)Oc1ccccc1Nc1nc(NCCO)nc(N2CCCC2)n1", "Activity": "inactive"}]}, {"molecular_target": "T1, Beta-hexosaminidase subunit alpha (Bos taurus) (UniProt Q0V8R6)", "T1 sequence (whole entry)": "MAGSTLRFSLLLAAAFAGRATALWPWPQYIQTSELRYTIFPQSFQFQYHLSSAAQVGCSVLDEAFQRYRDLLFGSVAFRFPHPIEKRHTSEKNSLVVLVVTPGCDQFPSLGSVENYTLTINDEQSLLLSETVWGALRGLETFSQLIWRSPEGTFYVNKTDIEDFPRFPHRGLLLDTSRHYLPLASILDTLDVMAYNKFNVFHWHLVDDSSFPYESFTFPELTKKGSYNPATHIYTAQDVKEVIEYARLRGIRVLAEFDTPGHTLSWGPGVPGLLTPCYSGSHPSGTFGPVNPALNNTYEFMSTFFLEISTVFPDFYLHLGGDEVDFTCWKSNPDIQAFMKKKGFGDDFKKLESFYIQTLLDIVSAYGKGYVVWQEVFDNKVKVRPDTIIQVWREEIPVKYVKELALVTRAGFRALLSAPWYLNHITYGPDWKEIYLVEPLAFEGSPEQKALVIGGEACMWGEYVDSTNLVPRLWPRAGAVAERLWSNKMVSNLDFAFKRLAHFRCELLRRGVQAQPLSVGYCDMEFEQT", "experiment": "Inhibition of bovine beta hexosaminidase upto 77 uM", "values": [{"smiles": "CC(C)(C)Oc1ccccc1Nc1nc(NCCO)nc(N2CCCC2)n1", "Activity": "inactive"}]}, {"test_system": "Oryza sativa", "experiment": "Inhibition of rice alpha glucosidase upto 77 uM", "values": [{"smiles": "CC(C)(C)Oc1ccccc1Nc1nc(NCCO)nc(N2CCCC2)n1", "Activity": "inactive"}]}, {"molecular_target": "T2, Lysosomal acid glucosylceramidase (Homo sapiens) (UniProt P04062)", "T2 sequence (whole entry)": "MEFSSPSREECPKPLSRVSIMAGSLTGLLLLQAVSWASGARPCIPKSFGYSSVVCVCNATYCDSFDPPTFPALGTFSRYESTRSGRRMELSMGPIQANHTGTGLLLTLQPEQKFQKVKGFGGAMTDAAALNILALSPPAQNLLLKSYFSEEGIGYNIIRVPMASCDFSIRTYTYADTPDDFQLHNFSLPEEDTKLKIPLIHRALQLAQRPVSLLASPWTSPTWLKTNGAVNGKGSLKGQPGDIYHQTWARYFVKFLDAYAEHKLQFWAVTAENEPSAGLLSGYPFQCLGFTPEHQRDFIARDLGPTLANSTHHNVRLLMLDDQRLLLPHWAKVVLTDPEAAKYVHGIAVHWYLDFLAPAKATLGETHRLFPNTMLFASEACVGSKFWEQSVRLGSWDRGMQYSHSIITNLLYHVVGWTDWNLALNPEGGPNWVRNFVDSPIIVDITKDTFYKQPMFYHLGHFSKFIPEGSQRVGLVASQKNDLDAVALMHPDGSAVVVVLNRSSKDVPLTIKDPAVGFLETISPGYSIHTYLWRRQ", "experiment": "(§1) Inhibition of glucocerebrosidase", "values": [{"smiles": "COc1ccc(Cl)cc1Nc1nc(NCCO)nc(N2CCCCCC2)n1", "Activity": "inactive"}, {"smiles": "CC(=O)Nc1ccccc1Nc1nc(NCCO)nc(N2CCCC2)n1", "Activity": "inactive"}, {"smiles": "COc1ccc(Cl)cc1Nc1nc(NCc2ccccc2)nc(N2CCCC2)n1", "Activity": "inactive"}, {"smiles": "COCCNc1nc(Nc2cc(Cl)ccc2OC)nc(N2CCCC2)n1", "Activity": "inactive"}, {"smiles": "CCN(CC)c1nc(NCCO)nc(Nc2cc(Cl)ccc2OC)n1", "Activity": "inactive"}, {"smiles": "O=[N+]([O-])c1ccccc1Nc1nc(NCCO)nc(N2CCCC2)n1", "Activity": "inactive"}, {"smiles": "COc1ccccc1Nc1nc(NCC(N)=O)nc(N2CCCC2)n1", "Activity": "inactive"}, {"smiles": "COc1ccc(Cl)cc1Nc1nc(N(CCO)CCO)nc(N2CCCC2)n1", "Activity": "inactive"}, {"smiles": "COc1ccc(Cl)cc1Nc1nc(NCc2ccco2)nc(N2CCCC2)n1", "Activity": "inactive"}, {"smiles": "COC(=O)CNc1nc(Nc2ccccc2OC)nc(N2CCCC2)n1", "Activity": "inactive"}, {"smiles": "COc1ccccc1Nc1nc(NCCCCO)nc(N2CCCC2)n1", "Activity": "inactive"}, {"smiles": "COc1ccccc1Nc1nc(NCCNC(C)=O)nc(N2CCCC2)n1", "Activity": "inactive"}, {"smiles": "NC(=O)c1ccccc1Nc1nc(NCCO)nc(N2CCCC2)n1", "Activity": "inactive"}, {"smiles": "COc1ccc(Cl)cc1Nc1nc(N)nc(N2CCCC2)n1", "Activity": "inactive"}]}, {"molecular_target": "T3, Lysosomal acid glucosylceramidase (Homo sapiens, UniProt P04062)", "T3 sequence (P04062 whole entry)": "T2 sequence (whole entry)", "experiment": "as §1", "units": {"IC50": "µM"}, "values": [{"smiles": "Cc1ccccc1Nc1nc(NCCO)nc(N2CCCC2)n1", "IC50": 3.94}, {"smiles": "OCCNc1nc(Nc2cc(-c3ccccc3)ccc2O)nc(N2CCCC2)n1", "IC50": 0.37}, {"smiles": "COc1ccccc1Nc1nc(NCC(C)O)nc(N2CCCC2)n1", "note": "(configuration not stated)", "IC50": 20.7}, {"smiles": "COc1ccc(C(F)(F)F)cc1Nc1nc(NCCO)nc(N2CCCC2)n1", "IC50": 2.65}, {"smiles": "CSc1ccccc1Nc1nc(NCCO)nc(N2CCCC2)n1", "IC50": 2.39}, {"smiles": "OCCNc1nc(Nc2ccccc2Oc2ccccc2)nc(N2CCCC2)n1", "IC50": 21.7}, {"smiles": "OCCNc1nc(Nc2cccc(Cl)c2)nc(N2CCCC2)n1", "IC50": 6.69}, {"smiles": "COc1cccc(Nc2nc(NCCO)nc(N3CCCC3)n2)c1", "IC50": 8.25}, {"smiles": "CCCCNc1nc(NCCO)nc(Nc2ccccc2OC)n1", "IC50": 6.1}, {"smiles": "CCCCNc1nc(Nc2cc(Cl)ccc2OC)nc(N2CCCC2)n1", "IC50": 7.77}, {"smiles": "COc1ccccc1Nc1nc(NCCO)nc(N2CCC2)n1", "IC50": 2.31}, {"smiles": "OCCNc1nc(Nc2ccccc2)nc(N2CCCC2)n1", "IC50": 16.5}, {"smiles": "COc1ccc(-c2ccccc2)cc1Nc1nc(NCCO)nc(N2CCCC2)n1", "IC50": 2.22}, {"smiles": "COc1ccccc1Nc1nc(NCCO)nc(N2CCCC2)n1", "IC50": 1.08}, {"smiles": "Cc1ccc(Nc2nc(NCCO)nc(N3CCCC3)n2)cc1", "IC50": 10}, {"smiles": "COc1ccc(Cl)cc1Nc1nc(NCCO)nc(N2CCCCC2)n1", "IC50": 31.1}, {"smiles": "COc1ccccc1Nc1nc(NCCO)nc(N2CCC(F)(F)C2)n1", "IC50": 7.75}, {"smiles": "OCCNc1nc(Nc2ccccc2O)nc(N2CCCC2)n1", "IC50": 2}, {"smiles": "COc1ccccc1Nc1nc(NCCO)nc(NCc2ccccc2)n1", "IC50": 18.8}, {"smiles": "OCCNc1nc(Nc2ccccc2Cl)nc(N2CCCC2)n1", "IC50": 29}, {"smiles": "CC(C)Oc1ccc(Cl)cc1Nc1nc(NCCO)nc(N2CCCC2)n1", "IC50": 3.44}, {"smiles": "OCCNc1nc(Nc2ccc(Cl)cc2)nc(N2CCCC2)n1", "IC50": 6.34}, {"smiles": "COc1ccc(Nc2nc(NCCO)nc(N3CCCC3)n2)c(OC)c1", "IC50": 4.9}, {"smiles": "OCCNc1nc(Nc2ccccc2OCc2ccccc2)nc(N2CCCC2)n1", "IC50": 31.4}, {"smiles": "Cc1cccc(Nc2nc(NCCO)nc(N3CCCC3)n2)c1", "IC50": 6.19}, {"smiles": "CCOc1ccccc1Nc1nc(NCCO)nc(N2CCCC2)n1", "IC50": 0.77}, {"smiles": "OCCNc1nc(Nc2ccccc2OC(F)(F)F)nc(N2CCCC2)n1", "IC50": 3.34}, {"smiles": "COc1ccccc1Nc1nc(NCC(O)Cc2ccccc2)nc(N2CCCC2)n1", "note": "(configuration not stated)", "IC50": 6.8}, {"smiles": "OCCNc1nc(Nc2cc(Cl)ccc2O)nc(N2CCCC2)n1", "IC50": 0.73}, {"smiles": "CCOc1ccc(Cl)cc1Nc1nc(NCCO)nc(N2CCCC2)n1", "IC50": 0.96}, {"smiles": "CC(C)(C)Oc1ccccc1Nc1nc(NCCO)nc(N2CCCC2)n1", "IC50": 0.33}, {"smiles": "CC(C)(C)Oc1ccc(Cl)cc1Nc1nc(NCCO)nc(N2CCCC2)n1", "IC50": 1.04}, {"smiles": "COc1ccc(OC)c(Nc2nc(NCCO)nc(N3CCCC3)n2)c1", "IC50": 1.53}, {"smiles": "COc1ccc(Cl)cc1Nc1nc(NCCO)nc(N2CCOCC2)n1", "IC50": 12.1}, {"smiles": "COc1ccc(Nc2nc(NCCO)nc(N3CCCC3)n2)cc1", "IC50": 8.8}]}]}
